Earlier results, collected in US10376470B2, “Oral tablet formulation consisting of fixed combination of rosuvastatin and ezetimibe for treatment of hyperlipidemia and cardiovascular diseases” (Althera Life Sciences, LLC, priority 2012, dated 2019).

O=C1[C@H](CC[C@H](O)c2ccc(F)cc2)[C@@H](c2ccc(O)cc2)N1c1ccc(F)cc1 [Ezetimibe, ezetimibe]
Solubility in water: practically insoluble
